Earlier results as cited in patent US20120283306A1, “MOUSE MODEL FOR AVM” (Georgia Health Sciences University, priority 2011, published 2012).

Conditions: mouse, in vivo

For `Cc1ccc(-c2cc(C(F)(F)F)nn2-c2ccc(S(N)(=O)=O)cc2)cc1` [celecoxib], the tolerability in mice is listed as “well tolerated”.
